Key:
[1] = system: Hepatocyte growth factor receptor (Homo sapiens), P08581 [M1250T]; assay: Inhibition of MET M1250T mutant (unknown origin) assessed as residual activity at 100 nM by KINOMEscan analysis relative to control
[2] = target: Angiopoietin-1 receptor (Homo sapiens) (UniProt Q02763); assay: Inhibition of TIE2 (unknown origin) assessed as residual activity at 100 nM by KINOMEscan analysis relative to control
[3] = target: Mitogen-activated protein kinase kinase kinase kinase 5 (Homo sapiens) (UniProt Q9Y4K4); assay: Inhibition of MAP4K5 (unknown origin) assessed as residual activity at 100 nM by KINOMEscan analysis relative to control
[4] = target: Tyrosine-protein kinase ABL1 (Homo sapiens) (UniProt P00519); assay: Inhibition of phosphorylated ABL1 (unknown origin) assessed as residual activity at 100 nM by KINOMEscan analysis relative to control
[5] = target: Glycogen synthase kinase-3 beta (Homo sapiens) (UniProt P49841); assay: Inhibition of GSK3B (unknown origin) assessed as residual activity at 100 nM by KINOMEscan analysis relative to control
[6] = target: Non-receptor tyrosine-protein kinase TYK2 (Homo sapiens) (UniProt P29597); assay: Inhibition of TYK2 JH1 catalytic domain (unknown origin) assessed as residual activity at 100 nM by KINOMEscan analysis relative to control
[7] = target: Tyrosine-protein kinase JAK1 (Homo sapiens) (UniProt P23458); assay: Inhibition of JAK1 JH1 catalytic domain (unknown origin) assessed as residual activity at 100 nM by KINOMEscan analysis relative to control
[8] = target: T1, Ephrin type-B receptor 4 (Homo sapiens) (UniProt P54760); assay: Inhibition of EPHB4 (unknown origin) assessed as residual activity at 100 nM by KINOMEscan analysis relative to control
T1 sequence (whole entry): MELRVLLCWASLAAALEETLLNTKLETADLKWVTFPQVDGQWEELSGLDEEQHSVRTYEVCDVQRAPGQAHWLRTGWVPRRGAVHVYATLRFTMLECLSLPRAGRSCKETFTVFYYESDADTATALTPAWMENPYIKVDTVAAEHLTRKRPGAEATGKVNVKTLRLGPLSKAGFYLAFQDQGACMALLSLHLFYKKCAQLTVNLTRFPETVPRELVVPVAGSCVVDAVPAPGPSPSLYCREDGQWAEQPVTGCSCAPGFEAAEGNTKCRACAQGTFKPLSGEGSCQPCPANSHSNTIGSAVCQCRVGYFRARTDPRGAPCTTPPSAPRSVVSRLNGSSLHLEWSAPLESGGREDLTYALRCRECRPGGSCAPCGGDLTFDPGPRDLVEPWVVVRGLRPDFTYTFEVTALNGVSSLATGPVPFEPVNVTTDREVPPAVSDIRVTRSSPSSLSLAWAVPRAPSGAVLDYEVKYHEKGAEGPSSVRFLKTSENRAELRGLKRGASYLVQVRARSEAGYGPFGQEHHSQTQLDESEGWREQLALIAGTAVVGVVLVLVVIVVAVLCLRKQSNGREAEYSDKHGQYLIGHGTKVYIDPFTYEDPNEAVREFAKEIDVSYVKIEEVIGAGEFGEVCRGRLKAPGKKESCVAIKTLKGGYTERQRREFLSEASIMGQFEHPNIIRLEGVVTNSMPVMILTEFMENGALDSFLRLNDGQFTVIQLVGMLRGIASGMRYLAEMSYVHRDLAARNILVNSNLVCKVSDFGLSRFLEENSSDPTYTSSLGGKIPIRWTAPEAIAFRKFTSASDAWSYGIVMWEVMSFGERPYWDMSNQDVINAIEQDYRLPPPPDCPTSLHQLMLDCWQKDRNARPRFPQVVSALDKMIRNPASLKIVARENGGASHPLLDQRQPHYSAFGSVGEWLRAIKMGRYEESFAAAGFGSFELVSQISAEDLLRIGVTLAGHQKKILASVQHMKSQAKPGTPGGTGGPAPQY

[9] = target: T2, Serine/threonine-protein kinase TBK1 (Homo sapiens) (UniProt Q9UHD2); assay: Inhibition of TBK1 (unknown origin) assessed as residual activity at 100 nM by KINOMEscan analysis relative to control
T2 sequence (whole entry): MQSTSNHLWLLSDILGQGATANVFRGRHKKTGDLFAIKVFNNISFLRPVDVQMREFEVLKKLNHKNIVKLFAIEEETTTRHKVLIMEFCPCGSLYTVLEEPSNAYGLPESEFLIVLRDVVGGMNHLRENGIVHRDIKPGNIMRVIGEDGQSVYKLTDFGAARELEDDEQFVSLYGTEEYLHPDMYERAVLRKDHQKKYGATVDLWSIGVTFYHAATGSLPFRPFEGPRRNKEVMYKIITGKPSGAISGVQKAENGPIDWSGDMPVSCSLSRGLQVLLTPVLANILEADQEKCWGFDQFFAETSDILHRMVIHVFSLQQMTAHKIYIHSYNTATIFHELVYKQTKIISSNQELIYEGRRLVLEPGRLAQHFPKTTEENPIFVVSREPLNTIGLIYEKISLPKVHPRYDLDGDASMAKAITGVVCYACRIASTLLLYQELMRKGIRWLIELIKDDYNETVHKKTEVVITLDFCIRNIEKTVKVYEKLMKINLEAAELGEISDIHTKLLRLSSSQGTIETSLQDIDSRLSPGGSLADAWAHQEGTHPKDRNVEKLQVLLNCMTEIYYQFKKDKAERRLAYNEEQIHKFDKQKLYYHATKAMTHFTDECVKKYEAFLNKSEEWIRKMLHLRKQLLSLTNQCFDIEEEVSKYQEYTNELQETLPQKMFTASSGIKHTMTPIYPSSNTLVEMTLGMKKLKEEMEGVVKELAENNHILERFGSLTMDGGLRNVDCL

[10] = target: T3, Membrane-associated tyrosine- and threonine-specific cdc2-inhibitory kinase (Homo sapiens) (UniProt Q99640); assay: Inhibition of PKMYT1 (unknown origin) assessed as residual activity at 100 nM by KINOMEscan analysis relative to control
T3 sequence (whole entry): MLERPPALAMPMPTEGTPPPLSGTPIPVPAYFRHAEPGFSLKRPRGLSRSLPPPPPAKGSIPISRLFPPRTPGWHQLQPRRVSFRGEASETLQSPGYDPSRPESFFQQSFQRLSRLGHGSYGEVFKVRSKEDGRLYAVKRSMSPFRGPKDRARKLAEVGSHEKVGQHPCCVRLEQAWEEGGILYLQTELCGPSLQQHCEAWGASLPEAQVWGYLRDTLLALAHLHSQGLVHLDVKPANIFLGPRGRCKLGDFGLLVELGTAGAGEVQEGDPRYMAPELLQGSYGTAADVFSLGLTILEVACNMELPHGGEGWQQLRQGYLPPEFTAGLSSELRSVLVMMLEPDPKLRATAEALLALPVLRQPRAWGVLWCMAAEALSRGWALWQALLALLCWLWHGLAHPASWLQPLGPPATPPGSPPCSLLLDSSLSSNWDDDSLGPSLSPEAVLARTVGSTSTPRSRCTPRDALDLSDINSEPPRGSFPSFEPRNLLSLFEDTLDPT

Sequence of Tyrosine-protein kinase JAK1 (Homo sapiens) (P23458 whole entry, the tested form may be a part): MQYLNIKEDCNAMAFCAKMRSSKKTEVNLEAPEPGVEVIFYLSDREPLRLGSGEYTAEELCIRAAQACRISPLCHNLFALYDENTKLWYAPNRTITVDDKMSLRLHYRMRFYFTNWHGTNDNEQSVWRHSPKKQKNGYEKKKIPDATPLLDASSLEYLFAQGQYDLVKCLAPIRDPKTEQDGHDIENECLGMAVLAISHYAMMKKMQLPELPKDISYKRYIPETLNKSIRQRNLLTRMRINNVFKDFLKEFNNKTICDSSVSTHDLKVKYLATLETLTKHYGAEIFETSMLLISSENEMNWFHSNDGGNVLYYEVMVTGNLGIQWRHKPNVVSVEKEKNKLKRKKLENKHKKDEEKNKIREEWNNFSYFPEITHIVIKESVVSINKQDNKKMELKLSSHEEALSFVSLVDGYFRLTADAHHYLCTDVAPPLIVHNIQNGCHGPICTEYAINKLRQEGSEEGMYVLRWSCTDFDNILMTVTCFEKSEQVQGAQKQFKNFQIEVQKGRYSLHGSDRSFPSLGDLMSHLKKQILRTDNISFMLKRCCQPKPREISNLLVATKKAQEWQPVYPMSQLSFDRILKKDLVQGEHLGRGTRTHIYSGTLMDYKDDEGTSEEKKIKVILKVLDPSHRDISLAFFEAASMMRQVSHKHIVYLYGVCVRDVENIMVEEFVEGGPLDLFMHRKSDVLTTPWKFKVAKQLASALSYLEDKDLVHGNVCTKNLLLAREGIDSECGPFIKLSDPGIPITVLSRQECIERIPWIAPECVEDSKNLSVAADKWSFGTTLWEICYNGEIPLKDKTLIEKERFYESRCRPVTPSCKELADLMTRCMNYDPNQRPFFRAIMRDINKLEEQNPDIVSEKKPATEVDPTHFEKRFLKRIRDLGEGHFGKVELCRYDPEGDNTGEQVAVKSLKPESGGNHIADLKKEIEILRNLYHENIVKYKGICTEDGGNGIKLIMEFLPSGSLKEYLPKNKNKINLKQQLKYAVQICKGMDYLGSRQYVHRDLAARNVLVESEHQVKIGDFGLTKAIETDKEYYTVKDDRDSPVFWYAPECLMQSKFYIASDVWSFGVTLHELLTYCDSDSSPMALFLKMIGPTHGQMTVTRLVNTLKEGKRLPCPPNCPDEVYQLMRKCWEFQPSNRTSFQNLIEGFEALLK
Sequence of Tyrosine-protein kinase ABL1 (Homo sapiens) (P00519 whole entry): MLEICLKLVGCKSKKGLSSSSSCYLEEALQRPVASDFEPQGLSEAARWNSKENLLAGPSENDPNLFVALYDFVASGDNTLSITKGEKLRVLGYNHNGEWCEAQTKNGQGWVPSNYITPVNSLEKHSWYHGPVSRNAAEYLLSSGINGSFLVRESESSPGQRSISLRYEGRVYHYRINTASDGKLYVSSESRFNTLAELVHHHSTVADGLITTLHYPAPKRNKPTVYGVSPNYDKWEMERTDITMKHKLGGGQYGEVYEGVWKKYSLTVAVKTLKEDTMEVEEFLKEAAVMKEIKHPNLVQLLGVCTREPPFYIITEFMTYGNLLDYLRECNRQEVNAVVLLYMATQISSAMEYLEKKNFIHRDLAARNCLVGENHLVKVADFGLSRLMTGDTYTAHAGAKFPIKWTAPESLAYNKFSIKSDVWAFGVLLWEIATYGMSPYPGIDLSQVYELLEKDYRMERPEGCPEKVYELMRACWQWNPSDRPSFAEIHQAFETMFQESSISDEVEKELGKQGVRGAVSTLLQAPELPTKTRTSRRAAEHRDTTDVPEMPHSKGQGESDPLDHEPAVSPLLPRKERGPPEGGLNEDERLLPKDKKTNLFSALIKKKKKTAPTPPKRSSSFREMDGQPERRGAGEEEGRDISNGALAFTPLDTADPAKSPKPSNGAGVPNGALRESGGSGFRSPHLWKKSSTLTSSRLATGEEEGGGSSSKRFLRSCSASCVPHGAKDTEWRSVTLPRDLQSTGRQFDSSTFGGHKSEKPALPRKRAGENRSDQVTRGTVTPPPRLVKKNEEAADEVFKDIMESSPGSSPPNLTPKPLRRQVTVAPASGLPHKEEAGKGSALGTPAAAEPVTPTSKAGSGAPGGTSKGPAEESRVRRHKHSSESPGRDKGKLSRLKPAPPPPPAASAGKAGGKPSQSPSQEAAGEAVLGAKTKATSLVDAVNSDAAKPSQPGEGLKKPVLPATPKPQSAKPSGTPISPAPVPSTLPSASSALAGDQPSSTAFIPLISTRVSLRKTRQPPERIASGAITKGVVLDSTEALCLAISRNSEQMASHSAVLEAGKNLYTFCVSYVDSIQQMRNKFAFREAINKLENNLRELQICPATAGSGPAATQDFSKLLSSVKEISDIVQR
Sequence of Glycogen synthase kinase-3 beta (Homo sapiens) (P49841 whole entry, looked up, the tested form may be a part): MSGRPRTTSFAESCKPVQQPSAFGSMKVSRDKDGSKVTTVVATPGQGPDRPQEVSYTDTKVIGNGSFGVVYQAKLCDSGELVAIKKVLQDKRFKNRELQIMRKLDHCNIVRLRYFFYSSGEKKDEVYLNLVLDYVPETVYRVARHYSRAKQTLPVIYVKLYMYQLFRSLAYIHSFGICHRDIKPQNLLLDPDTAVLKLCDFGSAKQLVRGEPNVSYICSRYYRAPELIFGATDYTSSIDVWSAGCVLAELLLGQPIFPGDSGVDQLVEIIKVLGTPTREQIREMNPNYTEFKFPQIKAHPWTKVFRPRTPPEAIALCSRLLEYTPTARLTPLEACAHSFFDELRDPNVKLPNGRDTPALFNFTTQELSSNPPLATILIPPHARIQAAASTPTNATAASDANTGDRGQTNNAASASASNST
Sequence of Angiopoietin-1 receptor (Homo sapiens) (Q02763 whole entry): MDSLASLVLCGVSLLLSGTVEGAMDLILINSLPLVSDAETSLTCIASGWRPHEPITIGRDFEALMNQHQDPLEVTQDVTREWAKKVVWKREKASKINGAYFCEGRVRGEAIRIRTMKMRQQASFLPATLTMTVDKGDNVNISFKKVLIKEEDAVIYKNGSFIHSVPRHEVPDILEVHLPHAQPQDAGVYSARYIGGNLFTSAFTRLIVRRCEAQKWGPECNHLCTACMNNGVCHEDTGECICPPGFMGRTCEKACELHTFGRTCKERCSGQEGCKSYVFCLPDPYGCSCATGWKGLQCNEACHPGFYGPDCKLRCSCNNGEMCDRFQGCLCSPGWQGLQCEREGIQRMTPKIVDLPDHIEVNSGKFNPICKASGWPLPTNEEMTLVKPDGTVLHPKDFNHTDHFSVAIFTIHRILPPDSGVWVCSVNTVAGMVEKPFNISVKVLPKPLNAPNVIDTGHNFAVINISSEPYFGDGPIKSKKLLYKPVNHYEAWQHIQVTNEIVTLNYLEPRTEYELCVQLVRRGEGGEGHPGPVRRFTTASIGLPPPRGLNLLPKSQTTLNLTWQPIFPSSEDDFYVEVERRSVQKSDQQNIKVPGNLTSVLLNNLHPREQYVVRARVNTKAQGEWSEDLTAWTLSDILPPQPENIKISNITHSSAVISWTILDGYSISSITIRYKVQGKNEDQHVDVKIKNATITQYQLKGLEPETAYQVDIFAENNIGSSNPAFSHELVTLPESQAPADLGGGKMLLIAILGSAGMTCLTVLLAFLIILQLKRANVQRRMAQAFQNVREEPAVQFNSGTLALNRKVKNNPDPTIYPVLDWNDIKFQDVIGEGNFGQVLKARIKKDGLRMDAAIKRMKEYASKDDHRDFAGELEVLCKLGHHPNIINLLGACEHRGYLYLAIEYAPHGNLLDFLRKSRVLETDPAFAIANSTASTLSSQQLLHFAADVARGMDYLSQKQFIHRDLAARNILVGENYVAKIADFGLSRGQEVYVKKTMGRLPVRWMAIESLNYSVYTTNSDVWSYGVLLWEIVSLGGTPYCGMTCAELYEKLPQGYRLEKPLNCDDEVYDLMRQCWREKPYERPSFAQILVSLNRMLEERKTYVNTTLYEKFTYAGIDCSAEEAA
Sequence of Non-receptor tyrosine-protein kinase TYK2 (Homo sapiens) (P29597 whole entry, the tested form may be a part): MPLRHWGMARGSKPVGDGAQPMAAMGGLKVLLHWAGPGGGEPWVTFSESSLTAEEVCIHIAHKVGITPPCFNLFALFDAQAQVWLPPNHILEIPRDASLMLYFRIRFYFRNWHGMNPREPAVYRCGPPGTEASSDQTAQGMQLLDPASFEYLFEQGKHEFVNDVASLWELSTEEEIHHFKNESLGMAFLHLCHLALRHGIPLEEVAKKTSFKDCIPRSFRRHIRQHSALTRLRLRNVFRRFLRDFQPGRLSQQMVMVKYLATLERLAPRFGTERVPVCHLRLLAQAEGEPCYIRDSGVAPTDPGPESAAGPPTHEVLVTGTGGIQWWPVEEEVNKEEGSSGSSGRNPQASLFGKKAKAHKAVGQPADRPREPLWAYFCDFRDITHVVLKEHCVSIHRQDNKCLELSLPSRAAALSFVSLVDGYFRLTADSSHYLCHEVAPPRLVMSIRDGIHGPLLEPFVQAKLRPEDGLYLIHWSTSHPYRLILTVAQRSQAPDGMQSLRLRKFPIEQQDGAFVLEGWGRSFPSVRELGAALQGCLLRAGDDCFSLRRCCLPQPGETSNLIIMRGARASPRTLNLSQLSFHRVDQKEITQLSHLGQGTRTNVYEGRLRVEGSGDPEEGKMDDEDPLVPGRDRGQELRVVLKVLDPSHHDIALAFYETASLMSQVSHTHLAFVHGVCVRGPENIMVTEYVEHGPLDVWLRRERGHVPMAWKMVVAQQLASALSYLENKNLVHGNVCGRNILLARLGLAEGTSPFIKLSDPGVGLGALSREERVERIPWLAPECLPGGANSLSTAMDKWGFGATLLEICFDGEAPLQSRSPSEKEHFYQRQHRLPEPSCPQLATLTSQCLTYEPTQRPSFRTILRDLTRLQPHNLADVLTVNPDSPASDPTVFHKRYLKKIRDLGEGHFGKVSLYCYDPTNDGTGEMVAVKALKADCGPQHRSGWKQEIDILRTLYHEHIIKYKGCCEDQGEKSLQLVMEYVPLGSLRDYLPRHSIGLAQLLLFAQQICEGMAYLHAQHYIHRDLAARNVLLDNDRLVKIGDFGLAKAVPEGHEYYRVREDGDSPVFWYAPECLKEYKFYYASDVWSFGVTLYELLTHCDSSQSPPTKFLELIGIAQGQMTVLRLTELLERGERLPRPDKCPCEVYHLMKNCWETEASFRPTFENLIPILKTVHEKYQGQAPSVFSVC

COc1cc2ncnc(N[C@H](C)c3cccc4ccccc34)c2cc1OC
Activity [1]: 95%
Activity [2]: 68%
Activity [3]: 87%
Activity [4]: 93%
Activity [5]: 94%
Activity [6]: 94%
Activity [7]: 79%
Activity [8]: 75%
Activity [9]: 96%
Activity [10]: 100%
